According to US6770597B2, “Benzohydrazide derivatives as herbicides and desiccant compositions containing them” (Ishihara Sangyo Kaisha, Ltd., priority 2002, dated 2004):

Key:
Format in all cases: in vivo
[1] = test system: barnyardgrass (Echinochloa crus-galli, ECHCG); experiment: Greenhouse herbicide screen, post-emerge application, phytotoxicity rating; conditions: POST emergent, 14 days after application, scale 0-100
In short: (§1)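 Compounds in acetone were track-sprayed at 187 l/ha, 15–1000 g ai/ha, nozzle 40–45 cm above canopy or soil. Pre-emerge seeds were sown 1 day before; post-emerge plants were at 2–3 leaves. Injury was rated 0–100 (0 none, 100 complete death) at 14 days after application.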

[2] = test system: cocklebur (Xanthium strumarium, XANST); experiment: as above; conditions: POST emergent, 14 days after application, scale 0-100
In short: as §1

[3] = test system: common ragweed (Ambrosia artemisiifolia L., AMBEL); experiment: as above; conditions: POST emergent, 14 days after application, scale 0-100
In short: as §1

[4] = test system: green foxtail (Setaria viridis, SETVI); experiment: as above; conditions: POST emergent, 14 days after application, scale 0-100
In short: as §1

[5] = test system: ivyleaf morningglory (Ipomoea hederacea, IPOHE); experiment: as above; conditions: POST emergent, 14 days after application, scale 0-100
In short: as §1

[6] = test system: johnsongrass (Sorghum halepense, SORHA); experiment: as above; conditions: POST emergent, 14 days after application, scale 0-100
In short: as §1

[7] = test system: lambsquarters (Chenopodium album, CHEAL); experiment: as above; conditions: POST emergent, 14 days after application, scale 0-100
In short: as §1

[8] = test system: large crabgrass (Digitaria sanguinalis, DIGSA); experiment: as above; conditions: POST emergent, 14 days after application, scale 0-100
In short: as §1

[9] = test system: redroot pigweed (Amaranthus retrofiexus, AMARE); experiment: as above; conditions: POST emergent, 14 days after application
In short: as §1

[10] = test system: sicklepod (Cassia obtusifolia, CASOB); experiment: as above; conditions: POST emergent, 14 days after application, scale 0-100
In short: as §1

[11] = test system: velvetleaf (Abutilon theophrasti, ABUTH); experiment: as above; conditions: POST emergent, 14 days after application, scale 0-100
In short: as §1

[12] = test system: field corn (Zea mays L., var. Dekalb 535, CORN); experiment: Greenhouse herbicide screen, post-emerge application, crop damage rating; conditions: POST emergent, 14 days after application, scale 0-100
In short: as §1

[13] = test system: upland rice (Oryza sp., var.Cocodrie, RICE); experiment: as above; conditions: POST emergent, 14 days after application, scale 0-100
In short: as §1

[14] = test system: barnyardgrass (Echinochloa crus-galli, ECHCG); experiment: Greenhouse herbicide screen, pre-emerge application, phytotoxicity rating; conditions: PRE emergent, 14 days after application, rating scale 0-100
In short: as §1

[15] = test system: cocklebur (Xanthium strumarium, XANST); experiment: as above; conditions: PRE emergent, 14 days after application, rating scale 0-100
In short: as §1

[16] = test system: common ragweed (Ambrosia artemisiifolia L., AMBEL); experiment: as above; conditions: PRE emergent, 14 days after application, rating scale 0-100
In short: as §1

[17] = test system: green foxtail (Setaria viridis, SETVI); experiment: as above; conditions: PRE emergent, 14 days after application, rating scale 0-100
In short: as §1

[18] = test system: ivyleaf morningglory (Ipomoea hederacea, IPOHE); experiment: as above; conditions: PRE emergent, 14 days after application, rating scale 0-100
In short: as §1

[19] = test system: johnsongrass (Sorghum halepense, SORHA); experiment: as above; conditions: PRE emergent, 14 days after application, rating scale 0-100
In short: as §1

[20] = test system: lambsquarters (Chenopodium album, CHEAL); experiment: as above; conditions: PRE emergent, 14 days after application, rating scale 0-100
In short: as §1

[21] = test system: large crabgrass (Digitaria sanguinalis, DIGSA); experiment: as above; conditions: PRE emergent, 14 days after application, rating scale 0-100
In short: as §1

[22] = test system: redroot pigweed (Amaranthus retrofiexus, AMARE); experiment: as above; conditions: PRE emergent, 14 days after application, rating scale 0-100
In short: as §1

[23] = test system: sicklepod (Cassia obtusifolia, CASOB); experiment: as above; conditions: PRE emergent, 14 days after application, rating scale 0-100
In short: as §1

[24] = test system: velvetleaf (Abutilon theophrasti, ABUTH); experiment: as above; conditions: PRE emergent, 14 days after application, rating scale 0-100
In short: as §1

[25] = test system: field corn (Zea mays L., var. Dekalb 535, CORN); experiment: Greenhouse herbicide screen, pre-emerge application, crop damage rating; conditions: PRE emergent, 14 days after application, rating scale 0-100
In short: as §1

[26] = test system: upland rice (Oryza sp., var.Cocodrie, RICE); experiment: as above; conditions: PRE emergent, 14 days after application, rating scale 0-100
In short: as §1

[27] = 63 g ai/ha, scale 0-100 (0 no damage, 100 complete death)

SMILES: CC1CCCC(C)N1NC(=O)c1cc(-n2c(=O)cc(C(F)(F)F)n(C)c2=S)c(F)cc1Cl (stereo not drawn) [Compound 1-15]
- phytotoxicity rating ECHCO ([1]; 63 g ai/ha): 50
- phytotoxicity rating ECHCO ([1]; 250 g ai/ha): 80
- phytotoxicity rating XANST ([2]; 63 g ai/ha): 100
- phytotoxicity rating XANST ([2]; 250 g ai/ha): 100
- phytotoxicity rating AMBEL ([3]; 63 g ai/ha): 80
- phytotoxicity rating AMBEL ([3]; 250 g ai/ha): 95
- phytotoxicity rating SETVI ([4]; 63 g ai/ha): 20
- phytotoxicity rating SETVI ([4]; 250 g ai/ha): 55
- phytotoxicity rating IPOHE ([5]; 63 g ai/ha): 75
- phytotoxicity rating IPOHE ([5]; 250 g ai/ha): 100
- phytotoxicity rating SORHA ([6]; 63 g ai/ha): 0
- phytotoxicity rating SORHA ([6]; 250 g ai/ha): 30
- phytotoxicity rating CHEAL ([7]; 63 g ai/ha): 98
- phytotoxicity rating CHEAL ([7]; 250 g ai/ha): 100
- phytotoxicity rating DIGSA ([8]; 63 g ai/ha): 10
- phytotoxicity rating DIGSA ([8]; 250 g ai/ha): 10
- phytotoxicity rating AMARE [9, 27]: 90
- phytotoxicity rating AMARE ([9]; 250 g ai/ha, scale 0-100): 100
- phytotoxicity rating CASOB ([10]; 63 g ai/ha): 70
- phytotoxicity rating CASOB ([10]; 250 g ai/ha): 75
- phytotoxicity rating ABUTH ([11]; 63 g ai/ha): 100
- phytotoxicity rating ABUTH ([11]; 250 g ai/ha): 100
- crop damage rating CORN ([12]; 63 g ai/ha): 40
- crop damage rating CORN ([12]; 250 g ai/ha): 60
- crop damage rating RICE ([13]; 63 g ai/ha): 0
- crop damage rating RICE ([13]; 250 g ai/ha): 30
- phytotoxicity rating ECHCG ([14]; 63 g ai/ha): 75
- phytotoxicity rating ECHCG ([14]; 250 g ai/ha): 100
- phytotoxicity rating XANST ([15]; 63 g ai/ha): 75
- phytotoxicity rating XANST ([15]; 250 g ai/ha): 100
- phytotoxicity rating AMBEL ([16]; 63 g ai/ha): 100
- phytotoxicity rating AMBEL ([16]; 250 g ai/ha): 100
- phytotoxicity rating SETVI ([17]; 63 g ai/ha): 100
- phytotoxicity rating SETVI ([17]; 250 g ai/ha): 100
- phytotoxicity rating IPOHE ([18]; 63 g ai/ha): 100
- phytotoxicity rating IPOHE ([18]; 250 g ai/ha): 100
- phytotoxicity rating SORHA ([19]; 63 g ai/ha): 100
- phytotoxicity rating SORHA ([19]; 250 g ai/ha): 100
- phytotoxicity rating CHEAL ([20]; 63 g ai/ha): 100
- phytotoxicity rating CHEAL ([20]; 250 g ai/ha): 100
- phytotoxicity rating DIGSA ([21]; 63 g ai/ha): 100
- phytotoxicity rating DIGSA ([21]; 250 g ai/ha): 100
- phytotoxicity rating AMARE ([22]; 63 g ai/ha): 100
- phytotoxicity rating AMARE ([22]; 250 g ai/ha): 100
- phytotoxicity rating CASOB ([23]; 63 g ai/ha): 45
- phytotoxicity rating CASOB ([23]; 250 g ai/ha): 90
- phytotoxicity rating ABUTH ([24]; 63 g ai/ha): 100
- phytotoxicity rating ABUTH ([24]; 250 g ai/ha): 100
- crop damage rating CORN ([25]; 63 g ai/ha): 25
- crop damage rating CORN ([25]; 250 g ai/ha): 100
- crop damage rating RICE ([26]; 63 g ai/ha): 55
- crop damage rating RICE ([26]; 250 g ai/ha): 70

SMILES: CC(=NN=C(OS(C)(=O)=O)c1cc(-n2c(=O)cc(C(F)(F)F)n(C)c2=O)c(F)cc1Cl)C(C)(C)C [Compound 5-3]
- phytotoxicity rating ECHCO ([1]; 63 g ai/ha): 100
- phytotoxicity rating XANST ([2]; 63 g ai/ha): 70
- phytotoxicity rating AMBEL ([3]; 63 g ai/ha): 90
- phytotoxicity rating SETVI ([4]; 63 g ai/ha): 60
- phytotoxicity rating IPOHE ([5]; 63 g ai/ha): 100
- phytotoxicity rating SORHA ([6]; 63 g ai/ha): 30
- phytotoxicity rating CHEAL ([7]; 63 g ai/ha): 80
- phytotoxicity rating DIGSA ([8]; 63 g ai/ha): 60
- phytotoxicity rating AMARE [9, 27]: 99
- phytotoxicity rating CASOB ([10]; 63 g ai/ha): 50
- phytotoxicity rating ABUTH ([11]; 63 g ai/ha): 95
- crop damage rating CORN ([12]; 63 g ai/ha): 60
- crop damage rating RICE ([13]; 63 g ai/ha): 10
- phytotoxicity rating ECHCG ([14]; 63 g ai/ha): 30
- phytotoxicity rating XANST ([15]; 63 g ai/ha): 30
- phytotoxicity rating AMBEL ([16]; 63 g ai/ha): 60
- phytotoxicity rating SETVI ([17]; 63 g ai/ha): 55
- phytotoxicity rating IPOHE ([18]; 63 g ai/ha): 80
- phytotoxicity rating SORHA ([19]; 63 g ai/ha): 90
- phytotoxicity rating CHEAL ([20]; 63 g ai/ha): 100
- phytotoxicity rating DIGSA ([21]; 63 g ai/ha): 60
- phytotoxicity rating AMARE ([22]; 63 g ai/ha): 100
- phytotoxicity rating CASOB ([23]; 63 g ai/ha): 70
- phytotoxicity rating ABUTH ([24]; 63 g ai/ha): 100
- crop damage rating CORN ([25]; 63 g ai/ha): 50
- crop damage rating RICE ([26]; 63 g ai/ha): 30
